# From patent US10766903B2 (ALMAC DISCOVERY LIMITED, priority 2016, dated 2020)
# Where two headings read alike, the source gives them in different places.
# Molecular target: USP7 (Homo sapiens (Human), UniProt Q93009)
# Test: USP7 fluorescence polarisation (FP) biochemical assay, ubiquitin-Lys-TAMRA substrate
# Details: average of at least duplicate experiments
# Summary of the method: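 Full-length His6-USP7 (2.5 nM) incubated ± inhibitor (8-point dilutions, 200 to 0.1 μM before addition) in 50 mM HEPES pH 7.2, 150 mM NaCl, 0.5 mM EDTA, 5 mM DTT, 0.05% BSA, 0.05% CHAPS. Ubiquitin-Lys-TAMRA cleavage followed by FP (ex 530/em 575 nm) every 15 min for 1.5 h; normalised to no-compound control.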
# [1] = Table 4, biochemical assay, read-out: USP7 IC50
# Sequence of USP7 (Q93009 whole entry): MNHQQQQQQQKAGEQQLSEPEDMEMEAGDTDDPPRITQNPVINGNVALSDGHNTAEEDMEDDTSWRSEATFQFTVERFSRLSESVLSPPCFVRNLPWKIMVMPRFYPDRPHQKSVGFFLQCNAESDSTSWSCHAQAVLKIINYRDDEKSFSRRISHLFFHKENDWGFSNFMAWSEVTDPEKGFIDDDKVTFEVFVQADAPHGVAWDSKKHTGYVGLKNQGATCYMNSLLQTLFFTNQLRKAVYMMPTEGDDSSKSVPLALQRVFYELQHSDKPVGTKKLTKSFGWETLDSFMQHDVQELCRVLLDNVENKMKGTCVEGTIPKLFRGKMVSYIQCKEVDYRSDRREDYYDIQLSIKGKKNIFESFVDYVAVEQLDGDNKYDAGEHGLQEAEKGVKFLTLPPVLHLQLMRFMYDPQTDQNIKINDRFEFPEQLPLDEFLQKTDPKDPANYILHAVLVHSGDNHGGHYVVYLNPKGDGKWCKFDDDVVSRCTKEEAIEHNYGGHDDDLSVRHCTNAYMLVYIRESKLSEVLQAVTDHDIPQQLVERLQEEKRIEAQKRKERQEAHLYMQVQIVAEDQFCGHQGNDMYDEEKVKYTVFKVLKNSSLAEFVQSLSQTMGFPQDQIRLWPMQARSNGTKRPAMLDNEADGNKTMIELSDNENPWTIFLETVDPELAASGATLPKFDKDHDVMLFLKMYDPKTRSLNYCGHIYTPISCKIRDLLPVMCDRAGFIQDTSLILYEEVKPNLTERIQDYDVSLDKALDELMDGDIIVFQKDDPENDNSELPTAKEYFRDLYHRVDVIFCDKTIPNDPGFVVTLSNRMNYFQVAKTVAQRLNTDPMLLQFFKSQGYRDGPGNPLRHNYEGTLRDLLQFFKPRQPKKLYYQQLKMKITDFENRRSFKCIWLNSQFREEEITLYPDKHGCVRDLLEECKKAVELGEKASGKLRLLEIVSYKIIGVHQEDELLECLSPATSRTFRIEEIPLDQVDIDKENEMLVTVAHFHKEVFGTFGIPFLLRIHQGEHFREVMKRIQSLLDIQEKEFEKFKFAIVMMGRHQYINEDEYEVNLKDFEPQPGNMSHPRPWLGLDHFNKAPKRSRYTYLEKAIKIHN
Structure (SMILES),IC50 [1],"IC50 (USP7 IC50, Table 4, biochemical assay)"
"Cc1c(NCCN2CCCC2)ncn(CC2(O)CCN(C(=O)C[C@@H](C)c3ccccc3)CC2)c1=O [Example 111, (R)-3-((4-Hydroxy-1-(3-phenylbutanoyl)piperidin-4-yl)methyl)-5-methyl-6-((2-(pyrrolidin-1-yl)ethyl)amino)pyrimidin-4(3H)-one]",1000 to 200000 nM,–
"Cn1nc2c(=O)n(CC3(O)CCN(C(=O)OCc4ccccc4)CC3)cnc2c1-c1ccc(CN)cc1 [Example 112, Benzyl 4-((3-(4-(aminomethyl)phenyl)-2-methyl-7-oxo-2,7-dihydro-6H-pyrazolo[4,3-d]pyrimidin-6-yl)methyl)-4-hydroxypiperidine-1-carboxylate]",1000 to 200000 nM,–
"CC(=O)N(CCN1CCCC1)c1cc(=O)n(CC2(O)CCN(C(=O)C[C@@H](C)c3ccccc3)CC2)cn1 [Example 113, (R)—N-(1-((4-Hydroxy-1-(3-phenylbutanoyl)piperidin-4-yl)methyl)-6-oxo-1,6-dihydropyrimidin-4-yl)-N-(2-(pyrrolidin-1-yl)ethyl)acetamide, Formic Acid]",1000 to 200000 nM,–
"C[C@H](CC(=O)N1CCC(O)(Cn2cnc(NCCN3CCC[C@H]3C)cc2=O)CC1)c1ccccc1 [Example 114, 3-((4-Hydroxy-1-((R)-3-phenylbutanoyl)piperidin-4-yl)methyl)-6-((2-((R)-2-methylpyrrolidin-1-yl)ethyl)amino)pyrimidin-4(3H)-one, Formic Acid]",< 250 nM,–
"C[C@H](CC(=O)N1CCC(O)(Cc2cnc(-c3ccccc3)cn2)CC1)c1ccccc1 [Example 115, (R)-1-(4-Hydroxy-4-((5-phenylpyrazin-2-yl)methyl)piperidin-1-yl)-3-phenylbutan-1-one]",1000 to 200000 nM,–
"Cn1nc2c(=O)n(CC3(O)CCN(C(=O)C[C@H](c4ccccc4)C(F)(F)F)CC3)cnc2c1-c1ccc([C@H](N)C(F)(F)F)cc1 [Example 119, 3-(4-((S)-1-Amino-2,2,2-trifluoroethyl)phenyl)-6-((4-hydroxy-1-((R)-4,4,4-trifluoro-3-phenylbutanoyl)piperidin-4-yl)methyl)-2-methyl-2H-pyrazolo[4,3-d]pyrimidin-7(6H)-one]",< 250 nM,–
CCn1nc2c(=O)n(CC3(O)CCN(C(=O)C[C@H](c4ccccc4)C(F)(F)F)CC3)cnc2c1-c1ccc(CN)cc1 [Example 120],< 250 nM,–

# More lines, now with the values ahead:
IC50 [1],"IC50 (USP7 IC50, Table 4, biochemical assay)",Structure (SMILES)
–,250 to 999 nM,"Cn1nc2c(=O)n(CC3(O)CCN(C(=O)C[C@H](c4ccccc4)C(F)(F)F)CC3)cnc2c1-c1ccc([C@@H](N)C(F)(F)F)cc1 [Example 118, 3-(4-((R)-1-Amino-2,2,2-trifluoroethyl)phenyl)-6-((4-hydroxy-1-((R)-4,4,4-trifluoro-3-phenylbutanoyl)piperidin-4-yl)methyl)-2-methyl-2H-pyrazolo[4,3-d]pyrimidin-7(6H)-one]"
1000 to 200000 nM,–,"C[C@H](CC(=O)N1CCC(O)(Cn2cnc(N(CCN3CCCC3)c3ccccc3)cc2=O)CC1)c1ccccc1 [Example 121, (R)-3-((4-Hydroxy-1-(3-phenylbutanoyl)piperidin-4-yl)methyl)-6-(phenyl(2-(pyrrolidin-1-yl)ethyl)amino)pyrimidin-4(3H)-one, Formic Acid]"
< 250 nM,–,"Cn1nc2c(=O)n(CC3(O)CCN(C(=O)C[C@H](c4ccccc4)C(F)(F)F)CC3)cnc2c1-c1ccc([C@H](N)C(F)F)cc1 [Example 122, 3-(4-((S)-1-Amino-2,2-difluoroethyl)phenyl)-6-((4-hydroxy-1-((R)-4,4,4-trifluoro-3-phenylbutanoyl)piperidin-4-yl)methyl)-2-methyl-2H-pyrazolo[4,3-d]pyrimidin-7(6H)-one]"
< 250 nM,–,"Cn1nc2c(=O)n(CC3(O)CCN(C(=O)C[C@H](c4ccccc4)C(F)(F)F)CC3)cnc2c1-c1ccc(CN)c(C(F)(F)F)c1 [Example 123, (R)-3-(4-(Aminomethyl)-3-(trifluoromethyl)phenyl)-6-((4-hydroxy-1-(4,4,4-trifluoro-3-phenylbutanoyl)piperidin-4-yl)methyl)-2-methyl-2H-pyrazolo[4,3-d]pyrimidin-7(6H)-one]"
